Source: PubChem BioAssay (NCI)
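Protocol summary: plate cells (96-well), add compound at 5 concentrations, incubate 48 h, interpolate endpoints linearly. TGI is the concentration that stops growth completely.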

System: SK-MEL-2 melanoma
Assay: NCI anticancer screen, dose series, 48 h

**Q.** Which TGI does the source give for `COc1ccc(-c2ncnc(-c3ccc(OC)c(OC)c3)n2)cc1OC` here?
**A.** > 100 µM

**Q.** `CN(C)C(=O)Oc1ccc[n+](C)c1` was tested. Which TGI did it give?
**A.** > 100 µM

System: SK-MEL-28 melanoma
Assay: NCI anticancer screen, dose series, 48 h

**Q.** Which TGI does the source give for `CN(N=O)C(=O)NNC(=O)N(C)N=O` here?
**A.** > 100 µM

**Q.** For `CC1=C(C)C2(C#N)C(=O)N3C(=NC(c4ccccc4)NC3c3ccccc3)C2(C#N)C(c2ccccc2)N1` (stereo not drawn), which TGI is on record?
**A.** > 100 µM

**Q.** Which TGI does the source give for `Cc1cccc(-n2c(C)nc3ccc(NC(=S)Nc4ccccc4)cc3c2=O)c1` here?
**A.** > 100 µM

**Q.** For `COc1ccc(-c2ncnc(-c3ccc(OC)c(OC)c3)n2)cc1OC`, which TGI is on record?
**A.** > 100 µM

**Q.** With `CN(C)C(=O)Oc1ccc[n+](C)c1` as the compound, how does the TGI read?
**A.** > 100 µM

System: SK-MEL-5 melanoma
Assay: NCI anticancer screen, dose series, 48 h

**Q.** For `CN(N=O)C(=O)NNC(=O)N(C)N=O`, which TGI is on record?
**A.** > 100 µM

**Q.** With `CC1=C(C)C2(C#N)C(=O)N3C(=NC(c4ccccc4)NC3c3ccccc3)C2(C#N)C(c2ccccc2)N1` (stereo not drawn) as the compound, how does the TGI read?
**A.** > 100 µM

**Q.** How did the TGI turn out when `Cc1cccc(-n2c(C)nc3ccc(NC(=S)Nc4ccccc4)cc3c2=O)c1` was run?
**A.** 57.1 µM

**Q.** How did the TGI turn out when `COc1ccc(-c2ncnc(-c3ccc(OC)c(OC)c3)n2)cc1OC` was run?
**A.** > 100 µM

**Q.** For `CN(C)C(=O)Oc1ccc[n+](C)c1`, which TGI is on record?
**A.** > 100 µM

System: SK-OV-3 ovarian
Assay: NCI anticancer screen, dose series, 48 h

**Q.** For `CN(N=O)C(=O)NNC(=O)N(C)N=O`, which TGI is on record?
**A.** > 100 µM

**Q.** `CC1=C(C)C2(C#N)C(=O)N3C(=NC(c4ccccc4)NC3c3ccccc3)C2(C#N)C(c2ccccc2)N1` (stereo not drawn) was tested. Which TGI did it give?
**A.** > 100 µM

**Q.** `COc1ccc(-c2ncnc(-c3ccc(OC)c(OC)c3)n2)cc1OC` was tested. Which TGI did it give?
**A.** > 100 µM

System: SN12C renal
Assay: NCI anticancer screen, dose series, 48 h

**Q.** How did the TGI turn out when `CN(N=O)C(=O)NNC(=O)N(C)N=O` was run?
**A.** > 100 µM

**Q.** How did the TGI turn out when `CC1=C(C)C2(C#N)C(=O)N3C(=NC(c4ccccc4)NC3c3ccccc3)C2(C#N)C(c2ccccc2)N1` (stereo not drawn) was run?
**A.** > 100 µM

**Q.** Which TGI does the source give for `Cc1cccc(-n2c(C)nc3ccc(NC(=S)Nc4ccccc4)cc3c2=O)c1` here?
**A.** > 100 µM

**Q.** For `COc1ccc(-c2ncnc(-c3ccc(OC)c(OC)c3)n2)cc1OC`, which TGI is on record?
**A.** > 100 µM

**Q.** Which TGI does the source give for `CN(C)C(=O)Oc1ccc[n+](C)c1` here?
**A.** > 100 µM

System: SNB-19 CNS
Assay: NCI anticancer screen, dose series, 48 h

**Q.** How did the TGI turn out when `CN(N=O)C(=O)NNC(=O)N(C)N=O` was run?
**A.** > 100 µM

**Q.** With `CC1=C(C)C2(C#N)C(=O)N3C(=NC(c4ccccc4)NC3c3ccccc3)C2(C#N)C(c2ccccc2)N1` (stereo not drawn) as the compound, how does the TGI read?
**A.** > 100 µM

**Q.** `Cc1cccc(-n2c(C)nc3ccc(NC(=S)Nc4ccccc4)cc3c2=O)c1` was tested. Which TGI did it give?
**A.** > 100 µM

**Q.** With `CN(C)C(=O)Oc1ccc[n+](C)c1` as the compound, how does the TGI read?
**A.** > 100 µM

System: SNB-75 CNS
Assay: NCI anticancer screen, dose series, 48 h

**Q.** How did the TGI turn out when `CN(N=O)C(=O)NNC(=O)N(C)N=O` was run?
**A.** > 100 µM

**Q.** How did the TGI turn out when `Cc1cccc(-n2c(C)nc3ccc(NC(=S)Nc4ccccc4)cc3c2=O)c1` was run?
**A.** > 100 µM

**Q.** `COc1ccc(-c2ncnc(-c3ccc(OC)c(OC)c3)n2)cc1OC` was tested. Which TGI did it give?
**A.** > 100 µM

**Q.** How did the TGI turn out when `CN(C)C(=O)Oc1ccc[n+](C)c1` was run?
**A.** > 100 µM

System: SR leukemia
Assay: NCI anticancer screen, dose series, 48 h

**Q.** With `CN(N=O)C(=O)NNC(=O)N(C)N=O` as the compound, how does the TGI read?
**A.** > 100 µM

**Q.** Which TGI does the source give for `CC1=C(C)C2(C#N)C(=O)N3C(=NC(c4ccccc4)NC3c3ccccc3)C2(C#N)C(c2ccccc2)N1` (stereo not drawn) here?
**A.** > 100 µM

**Q.** Which TGI does the source give for `Cc1cccc(-n2c(C)nc3ccc(NC(=S)Nc4ccccc4)cc3c2=O)c1` here?
**A.** > 100 µM

**Q.** How did the TGI turn out when `COc1ccc(-c2ncnc(-c3ccc(OC)c(OC)c3)n2)cc1OC` was run?
**A.** > 100 µM

**Q.** How did the TGI turn out when `CN(C)C(=O)Oc1ccc[n+](C)c1` was run?
**A.** > 100 µM

System: SW-620 colon
Assay: NCI anticancer screen, dose series, 48 h

**Q.** With `CN(N=O)C(=O)NNC(=O)N(C)N=O` as the compound, how does the TGI read?
**A.** > 100 µM

**Q.** With `CC1=C(C)C2(C#N)C(=O)N3C(=NC(c4ccccc4)NC3c3ccccc3)C2(C#N)C(c2ccccc2)N1` (stereo not drawn) as the compound, how does the TGI read?
**A.** > 100 µM

**Q.** For `Cc1cccc(-n2c(C)nc3ccc(NC(=S)Nc4ccccc4)cc3c2=O)c1`, which TGI is on record?
**A.** > 100 µM

**Q.** How did the TGI turn out when `COc1ccc(-c2ncnc(-c3ccc(OC)c(OC)c3)n2)cc1OC` was run?
**A.** > 100 µM

**Q.** With `CN(C)C(=O)Oc1ccc[n+](C)c1` as the compound, how does the TGI read?
**A.** > 100 µM

System: T-47D breast
Assay: NCI anticancer screen, dose series, 48 h

**Q.** With `CN(N=O)C(=O)NNC(=O)N(C)N=O` as the compound, how does the TGI read?
**A.** > 100 µM

**Q.** With `CC1=C(C)C2(C#N)C(=O)N3C(=NC(c4ccccc4)NC3c3ccccc3)C2(C#N)C(c2ccccc2)N1` (stereo not drawn) as the compound, how does the TGI read?
**A.** > 100 µM

**Q.** For `Cc1cccc(-n2c(C)nc3ccc(NC(=S)Nc4ccccc4)cc3c2=O)c1`, which TGI is on record?
**A.** > 100 µM

**Q.** With `COc1ccc(-c2ncnc(-c3ccc(OC)c(OC)c3)n2)cc1OC` as the compound, how does the TGI read?
**A.** > 100 µM

**Q.** `CN(C)C(=O)Oc1ccc[n+](C)c1` was tested. Which TGI did it give?
**A.** > 100 µM

System: TK-10 renal
Assay: NCI anticancer screen, dose series, 48 h

**Q.** How did the TGI turn out when `CN(N=O)C(=O)NNC(=O)N(C)N=O` was run?
**A.** > 100 µM

**Q.** For `CC1=C(C)C2(C#N)C(=O)N3C(=NC(c4ccccc4)NC3c3ccccc3)C2(C#N)C(c2ccccc2)N1` (stereo not drawn), which TGI is on record?
**A.** > 100 µM

**Q.** For `Cc1cccc(-n2c(C)nc3ccc(NC(=S)Nc4ccccc4)cc3c2=O)c1`, which TGI is on record?
**A.** > 100 µM

**Q.** With `COc1ccc(-c2ncnc(-c3ccc(OC)c(OC)c3)n2)cc1OC` as the compound, how does the TGI read?
**A.** > 100 µM

**Q.** How did the TGI turn out when `CN(C)C(=O)Oc1ccc[n+](C)c1` was run?
**A.** > 100 µM

System: U251 CNS
Assay: NCI anticancer screen, dose series, 48 h

**Q.** Which TGI does the source give for `CN(N=O)C(=O)NNC(=O)N(C)N=O` here?
**A.** > 100 µM

**Q.** How did the TGI turn out when `CC1=C(C)C2(C#N)C(=O)N3C(=NC(c4ccccc4)NC3c3ccccc3)C2(C#N)C(c2ccccc2)N1` (stereo not drawn) was run?
**A.** > 100 µM

**Q.** For `Cc1cccc(-n2c(C)nc3ccc(NC(=S)Nc4ccccc4)cc3c2=O)c1`, which TGI is on record?
**A.** > 100 µM

**Q.** Which TGI does the source give for `COc1ccc(-c2ncnc(-c3ccc(OC)c(OC)c3)n2)cc1OC` here?
**A.** > 100 µM

**Q.** With `CN(C)C(=O)Oc1ccc[n+](C)c1` as the compound, how does the TGI read?
**A.** > 100 µM

System: UACC-257 melanoma
Assay: NCI anticancer screen, dose series, 48 h

**Q.** With `CN(N=O)C(=O)NNC(=O)N(C)N=O` as the compound, how does the TGI read?
**A.** > 100 µM

**Q.** How did the TGI turn out when `CC1=C(C)C2(C#N)C(=O)N3C(=NC(c4ccccc4)NC3c3ccccc3)C2(C#N)C(c2ccccc2)N1` (stereo not drawn) was run?
**A.** > 100 µM

**Q.** How did the TGI turn out when `Cc1cccc(-n2c(C)nc3ccc(NC(=S)Nc4ccccc4)cc3c2=O)c1` was run?
**A.** > 100 µM

**Q.** Which TGI does the source give for `COc1ccc(-c2ncnc(-c3ccc(OC)c(OC)c3)n2)cc1OC` here?
**A.** > 100 µM

**Q.** `CN(C)C(=O)Oc1ccc[n+](C)c1` was tested. Which TGI did it give?
**A.** > 100 µM

System: UACC-62 melanoma
Assay: NCI anticancer screen, dose series, 48 h

**Q.** For `CN(N=O)C(=O)NNC(=O)N(C)N=O`, which TGI is on record?
**A.** > 100 µM

**Q.** `CC1=C(C)C2(C#N)C(=O)N3C(=NC(c4ccccc4)NC3c3ccccc3)C2(C#N)C(c2ccccc2)N1` (stereo not drawn) was tested. Which TGI did it give?
**A.** > 100 µM

**Q.** `Cc1cccc(-n2c(C)nc3ccc(NC(=S)Nc4ccccc4)cc3c2=O)c1` was tested. Which TGI did it give?
**A.** > 100 µM

**Q.** How did the TGI turn out when `COc1ccc(-c2ncnc(-c3ccc(OC)c(OC)c3)n2)cc1OC` was run?
**A.** > 100 µM

**Q.** Which TGI does the source give for `CN(C)C(=O)Oc1ccc[n+](C)c1` here?
**A.** > 100 µM

System: UO-31 renal
Assay: NCI anticancer screen, dose series, 48 h

**Q.** How did the TGI turn out when `CN(N=O)C(=O)NNC(=O)N(C)N=O` was run?
**A.** > 100 µM

**Q.** Which TGI does the source give for `CC1=C(C)C2(C#N)C(=O)N3C(=NC(c4ccccc4)NC3c3ccccc3)C2(C#N)C(c2ccccc2)N1` (stereo not drawn) here?
**A.** > 100 µM

**Q.** With `Cc1cccc(-n2c(C)nc3ccc(NC(=S)Nc4ccccc4)cc3c2=O)c1` as the compound, how does the TGI read?
**A.** > 100 µM

**Q.** How did the TGI turn out when `COc1ccc(-c2ncnc(-c3ccc(OC)c(OC)c3)n2)cc1OC` was run?
**A.** > 100 µM

**Q.** `CN(C)C(=O)Oc1ccc[n+](C)c1` was tested. Which TGI did it give?
**A.** > 100 µM
